#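 Following 48 hours of exposure in 96-well plates, responses at five concentrations were used to interpolate endpoints linearly. GI50 is the concentration that inhibits growth by half.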 Active and inactive are the calls of the source. No stated cut-off is given here; in the data, active = GI50 up to about 1.1 µM and inactive = higher.
# Key:
# Assay in all cases: NCI-60 cell line screen, 48 h
# SW-620 = system: SW-620
# SK-OV-3 = system: SK-OV-3
# K562 = system: K562
# SNB-75 = system: SNB-75
# HOP-18 = system: HOP-18
# OVCAR-8 = system: OVCAR-8
# A498 = system: A498
# NCI/ADR-RES = system: NCI/ADR-RES
# RXF 393 = system: RXF 393
# OVCAR-5 = system: OVCAR-5
# MCF7 = system: MCF7
# A549 = system: A549
# SNB-78 = system: SNB-78
# SK-MEL-5 = system: SK-MEL-5
# SK-MEL-2 = system: SK-MEL-2
# LOX IMVI = system: LOX IMVI
# SK-MEL-28 = system: SK-MEL-28
# UACC-257 = system: UACC-257
# SNB-19 = system: SNB-19
# HL-60 = system: HL-60
# CCRF-CEM = system: CCRF-CEM
# SN12C = system: SN12C
# Malme-3M = system: Malme-3M
# RPMI-8226 = system: RPMI-8226
# NCI-H23 = system: NCI-H23
# COLO 205 = system: COLO 205
# XF498 = system: XF498
# U-251 = system: U-251
# HT-29 = system: HT-29
# OVCAR-3 = system: OVCAR-3
# SF-295 = system: SF-295
# HCT-15 = system: HCT-15
# HCC 2998 = system: HCC 2998
# DLD-1 = system: DLD-1
# MOLT-4 = system: MOLT-4
# UO-31 = system: UO-31
# NCI-H522 = system: NCI-H522
# HOP-62 = system: HOP-62
# HCT-116 = system: HCT-116
# KM-20L2 = system: KM-20L2
# OVCAR-4 = system: OVCAR-4
# KM12 = system: KM12
# HOP-92 = system: HOP-92
# M19-MEL = system: M19-MEL
# DMS-273 = system: DMS-273
# SF-539 = system: SF-539
# NCI-H460 = system: NCI-H460
# IGROV-1 = system: IGROV-1
# 786-0 = system: 786-0
# NCI-H226 = system: NCI-H226
# TK-10 = system: TK-10
# EKVX = system: EKVX
# CAKI-1 = system: CAKI-1
# M14 = system: M14
# SF-268 = system: SF-268
# UACC-62 = system: UACC-62
# ACHN = system: ACHN
# DMS-114 = system: DMS-114
# SR = system: SR
# LXFL 529 = system: LXFL 529
compound,measurement,setting,value
O=C(/C=C\c1ccc(/C=C/C(=O)Nc2cccc(C3=NCCCN3)c2)cc1)Nc1cccc(C2=NCCCN2)c1,GI50,SW-620,25.4 µM (inactive)
same,GI50,SK-OV-3,> 100 µM (inactive)
same,GI50,K562,> 100 µM (inactive)
same,GI50,SNB-75,> 69.3 µM (inactive)
same,GI50,HOP-18,> 100 µM (inactive)
same,GI50,OVCAR-8,> 100 µM (inactive)
same,GI50,A498,> 74.3 µM (inactive)
same,GI50,NCI/ADR-RES,> 100 µM (inactive)
same,GI50,RXF 393,> 100 µM (inactive)
same,GI50,OVCAR-5,> 100 µM (inactive)
same,GI50,MCF7,16.3 µM (inactive)
same,GI50,A549,> 100 µM (inactive)
same,GI50,SNB-78,> 100 µM (inactive)
same,GI50,SK-MEL-5,30.8 µM (inactive)
same,GI50,SK-MEL-2,> 62.8 µM (inactive)
same,GI50,LOX IMVI,> 100 µM (inactive)
same,GI50,SK-MEL-28,> 100 µM (inactive)
same,GI50,UACC-257,> 100 µM (inactive)
same,GI50,SNB-19,> 100 µM (inactive)
same,GI50,HL-60,> 100 µM (inactive)
same,GI50,CCRF-CEM,> 100 µM (inactive)
same,GI50,SN12C,> 100 µM (inactive)
same,GI50,Malme-3M,> 100 µM (inactive)
same,GI50,RPMI-8226,33.9 µM (inactive)
same,GI50,NCI-H23,> 100 µM (inactive)
same,GI50,COLO 205,4.06 µM (inactive)
same,GI50,XF498,< 0.01 µM (active)
same,GI50,U-251,> 100 µM (inactive)
same,GI50,HT-29,> 100 µM (inactive)
same,GI50,OVCAR-3,> 100 µM (inactive)
same,GI50,SF-295,> 100 µM (inactive)
same,GI50,HCT-15,> 100 µM
same,GI50,HCC 2998,69.2 µM (inactive)
same,GI50,DLD-1,> 100 µM (inactive)
same,GI50,MOLT-4,> 100 µM (inactive)
same,GI50,UO-31,> 100 µM (inactive)
same,GI50,NCI-H522,42.8 µM (inactive)
same,GI50,HOP-62,65.8 µM (inactive)
same,GI50,HCT-116,> 100 µM (inactive)
same,GI50,KM-20L2,> 56.4 µM (inactive)
same,GI50,OVCAR-4,> 100 µM (inactive)
same,GI50,KM12,> 100 µM (inactive)
same,GI50,HOP-92,> 100 µM (inactive)
same,GI50,M19-MEL,> 100 µM (inactive)
same,GI50,DMS-273,> 100 µM (inactive)
same,GI50,SF-539,> 100 µM (inactive)
same,GI50,NCI-H460,> 100 µM (inactive)
same,GI50,IGROV-1,> 100 µM (inactive)
Sc1nnc(COc2ccc(Cl)cc2Cl)[nH]1,GI50,SW-620,> 100 µM (inactive)
same,GI50,786-0,> 100 µM (inactive)
same,GI50,NCI-H226,> 100 µM (inactive)
same,GI50,K562,> 100 µM (inactive)
same,GI50,SNB-75,> 100 µM (inactive)
same,GI50,OVCAR-8,> 100 µM (inactive)
same,GI50,A498,> 100 µM (inactive)
same,GI50,RXF 393,> 100 µM (inactive)
same,GI50,OVCAR-5,> 100 µM (inactive)
same,GI50,A549,> 100 µM (inactive)
same,GI50,SNB-78,> 100 µM (inactive)
same,GI50,SK-MEL-5,> 100 µM (inactive)
same,GI50,SK-MEL-2,> 100 µM (inactive)
same,GI50,TK-10,> 100 µM (inactive)
same,GI50,EKVX,> 100 µM (inactive)
same,GI50,LOX IMVI,> 100 µM (inactive)
same,GI50,SK-MEL-28,> 100 µM (inactive)
same,GI50,CAKI-1,> 100 µM (inactive)
same,GI50,UACC-257,> 100 µM (inactive)
same,GI50,SNB-19,> 100 µM (inactive)
same,GI50,HL-60,26.4 µM (inactive)
same,GI50,M14,> 100 µM (inactive)
same,GI50,CCRF-CEM,> 100 µM (inactive)
same,GI50,SN12C,> 100 µM (inactive)
same,GI50,SF-268,> 100 µM (inactive)
same,GI50,UACC-62,> 100 µM (inactive)
same,GI50,Malme-3M,> 100 µM (inactive)
same,GI50,ACHN,> 100 µM (inactive)
same,GI50,RPMI-8226,> 100 µM (inactive)
same,GI50,NCI-H23,> 100 µM (inactive)
same,GI50,XF498,> 100 µM (inactive)
same,GI50,U-251,> 100 µM (inactive)
same,GI50,DMS-114,> 100 µM (inactive)
same,GI50,HT-29,> 100 µM (inactive)
same,GI50,OVCAR-3,> 100 µM (inactive)
same,GI50,SF-295,> 100 µM (inactive)
same,GI50,HCT-15,> 100 µM
same,GI50,HCC 2998,> 100 µM (inactive)
same,GI50,DLD-1,> 100 µM (inactive)
same,GI50,MOLT-4,> 100 µM (inactive)
same,GI50,UO-31,> 100 µM (inactive)
same,GI50,HCT-116,> 100 µM (inactive)
same,GI50,KM-20L2,> 100 µM (inactive)
same,GI50,SR,> 100 µM (inactive)
same,GI50,OVCAR-4,> 100 µM (inactive)
same,GI50,HOP-92,> 100 µM (inactive)
same,GI50,LXFL 529,> 100 µM (inactive)
same,GI50,M19-MEL,> 100 µM (inactive)
same,GI50,DMS-273,> 100 µM (inactive)
same,GI50,SF-539,> 100 µM (inactive)
same,GI50,NCI-H460,> 100 µM (inactive)
same,GI50,IGROV-1,> 100 µM (inactive)
OC12c3ccccc3C1CCCCCCCCCC21OCCCO1 (stereo not drawn),GI50,SW-620,> 100 µM (inactive)
same,GI50,SK-OV-3,> 100 µM (inactive)
same,GI50,NCI-H226,> 100 µM (inactive)
same,GI50,K562,5.09 µM (inactive)
same,GI50,SNB-75,> 100 µM (inactive)
same,GI50,HOP-18,> 100 µM (inactive)
same,GI50,OVCAR-8,> 100 µM (inactive)
same,GI50,OVCAR-5,> 100 µM (inactive)
same,GI50,A549,> 100 µM (inactive)
same,GI50,SNB-78,> 100 µM (inactive)
same,GI50,SK-MEL-5,> 100 µM (inactive)
same,GI50,TK-10,> 100 µM (inactive)
same,GI50,EKVX,> 100 µM (inactive)
same,GI50,LOX IMVI,> 100 µM (inactive)
same,GI50,SK-MEL-28,> 100 µM (inactive)
same,GI50,UACC-257,> 100 µM (inactive)
same,GI50,SNB-19,> 100 µM (inactive)
same,GI50,HL-60,4.15 µM (inactive)
same,GI50,M14,> 100 µM (inactive)
same,GI50,CCRF-CEM,> 100 µM (inactive)
same,GI50,SN12C,> 100 µM (inactive)
same,GI50,SF-268,> 100 µM (inactive)
same,GI50,UACC-62,> 100 µM (inactive)
same,GI50,Malme-3M,> 100 µM (inactive)
same,GI50,RPMI-8226,> 100 µM (inactive)
same,GI50,NCI-H23,> 100 µM (inactive)
same,GI50,COLO 205,> 100 µM (inactive)
same,GI50,XF498,> 100 µM (inactive)
same,GI50,DMS-114,> 100 µM (inactive)
same,GI50,HT-29,> 100 µM (inactive)
same,GI50,OVCAR-3,> 100 µM (inactive)
same,GI50,SF-295,> 100 µM (inactive)
same,GI50,HCT-15,5.15 µM
same,GI50,HCC 2998,> 100 µM (inactive)
same,GI50,DLD-1,> 100 µM (inactive)
same,GI50,UO-31,> 100 µM (inactive)
same,GI50,NCI-H522,> 100 µM (inactive)
same,GI50,HOP-62,> 100 µM (inactive)
same,GI50,HCT-116,4.06 µM (inactive)
same,GI50,SR,4.73 µM (inactive)
same,GI50,OVCAR-4,> 100 µM (inactive)
same,GI50,KM12,> 100 µM (inactive)
same,GI50,LXFL 529,> 100 µM (inactive)
same,GI50,M19-MEL,> 100 µM (inactive)
same,GI50,DMS-273,> 100 µM (inactive)
same,GI50,SF-539,> 100 µM (inactive)
same,GI50,IGROV-1,> 100 µM (inactive)
COc1cc(CNc2ccc(C(C)C)cc2)cc(OC)c1OC,GI50,SK-OV-3,17.6 µM (inactive)
same,GI50,786-0,15.4 µM (inactive)
same,GI50,K562,8.57 µM (inactive)
same,GI50,SNB-75,23.7 µM (inactive)
same,GI50,HOP-18,34.1 µM (inactive)
same,GI50,OVCAR-8,28 µM (inactive)
same,GI50,A498,30.4 µM (inactive)
same,GI50,RXF 393,0.693 µM (active)
same,GI50,OVCAR-5,24.8 µM (inactive)
same,GI50,A549,13 µM (inactive)
same,GI50,SNB-78,35.1 µM (inactive)
same,GI50,SK-MEL-5,14.7 µM (inactive)
same,GI50,SK-MEL-2,13 µM (inactive)
same,GI50,TK-10,47.4 µM (inactive)
same,GI50,EKVX,51.8 µM (inactive)
same,GI50,LOX IMVI,16.2 µM (inactive)
same,GI50,SK-MEL-28,27 µM (inactive)
same,GI50,UACC-257,25.8 µM (inactive)
same,GI50,SNB-19,29.6 µM (inactive)
same,GI50,CCRF-CEM,19 µM (inactive)
same,GI50,SN12C,17.4 µM (inactive)
same,GI50,SF-268,54.7 µM (inactive)
same,GI50,UACC-62,16 µM (inactive)
same,GI50,Malme-3M,19.5 µM (inactive)
same,GI50,ACHN,21.8 µM (inactive)
same,GI50,RPMI-8226,14.4 µM (inactive)
same,GI50,NCI-H23,20.1 µM (inactive)
same,GI50,XF498,32.3 µM (inactive)
same,GI50,U-251,15.4 µM (inactive)
same,GI50,DMS-114,24.9 µM (inactive)
same,GI50,HT-29,16.9 µM (inactive)
same,GI50,HCT-15,16.9 µM
same,GI50,DLD-1,24 µM (inactive)
same,GI50,MOLT-4,22.4 µM (inactive)
same,GI50,UO-31,20.2 µM (inactive)
same,GI50,HOP-62,23.9 µM (inactive)
same,GI50,HCT-116,11.5 µM (inactive)
same,GI50,KM-20L2,16.8 µM (inactive)
same,GI50,OVCAR-4,25.3 µM (inactive)
same,GI50,KM12,18.5 µM (inactive)
same,GI50,HOP-92,20.3 µM (inactive)
same,GI50,LXFL 529,18.9 µM (inactive)
same,GI50,M19-MEL,17.1 µM (inactive)
same,GI50,SF-539,20.3 µM (inactive)
same,GI50,NCI-H460,13.4 µM (inactive)
same,GI50,IGROV-1,31 µM (inactive)

# Source: ChEMBL document CHEMBL1201862, “PubChem BioAssay data set” (2004)
